Source: EP4342885A1, “N-(3-(AMINOMETHYL)-PHENYL)-5-(4-PHENYL)-5-(TRIFLUOROMETHYL)-4,5-DIHYDROISOXAZOL-3-AMINE DERIVATIVES AND SIMILAR COMPOUNDS AS PESTICIDES” (priority 2022, dated 2024)

Experiments:
Type in all cases: in vivo
Heliothis virescens = assay: Tobacco budworm (Heliothis virescens) control, 96-well microtiter plate insect diet with eggs; conditions: 120 h, read-out: mortality in comparison with untreated controls
Method: For evaluating control of Tobacco Budworm, the test unit consisted of 96-well-microtiter plates containing an insect diet and 15-25 H. virescens eggs. The compounds were formulated using a solution containing 75% v/v water and 25% v/v DMSO. Different concentrations of formulated compounds were sprayed onto the insect diet at 10µl, using a custom-built micro atomizer, at two replications. After application, microtiter plates were incubated at about 28 ± 1°C and about 80 ± 5 % relative humidity for 5 days. Egg and larval mortality was then visually assessed.

Anthonomus grandis = assay: Boll weevil (Anthonomus grandis) control, 96-well microtiter plate insect diet with eggs; conditions: 120 h, read-out: mortality in comparison with untreated controls
Method: For evaluating control of boll weevil, the test unit consisted of 96-well-microtiter plates containing an insect diet and 5-10 A. grandis eggs.
The compounds were formulated using a solution containing 75% v/v water and 25% v/v DMSO. Different concentrations of formulated compounds were sprayed onto the insect diet at 5µl, using a custom-built micro atomizer, at two replications.
After application, microtiter plates were incubated at about 25 ± 1°C and about 75 ± 5 % relative humidity for 5 days. Egg and larval mortality were then visually assessed.

Myzus persicae = assay: Green peach aphid (Myzus persicae), mixed life stages, systemic test via artificial diet under membrane; conditions: 72 h, read-out: mortality in comparison with untreated controls
Description: For evaluating control of Green Peach Aphid through systemic means the test unit consisted of 96-well-microtiter plates containing liquid artificial diet under an artificial membrane. The compounds were formulated using a solution containing 75% v/v water and 25% v/v DMSO. Different concentrations of formulated compounds were pipetted into the aphid diet, using a custom-built pipette, at two replications. After application, 5 - 8 adult aphids were placed on the artificial membrane inside the microtiter plate wells. The aphids were then allowed to suck on the treated aphid diet and incubated at about 23 ± 1°C and about 50 ± 5 % relative humidity for 3 days. Aphid mortality and fecundity was then visually assessed.

Plutella xylostella = assay: Diamond back moth (Plutella xylostella) control, 96-well microtiter plate insect diet with eggs; conditions: 120 h, read-out: mortality in comparison with untreated controls
Method: For evaluating control of […] (Plutella xylostella) the test unit consisted of 96-well-microtiter plates containing an insect diet and 15-25 P. xylostella eggs.
The compounds or mixtures were formulated using a solution containing 75% water and 25% DMSO. Different concentrations of formulated compounds or mixtures were sprayed onto the insect diet at 5µl, using a custom-built micro atomizer, at two replications.
After application, microtiter plates were incubated at 28 ± 1°C, 80 ± 5 % RH for 5 days. Egg and larval mortality was then visually assessed.

Aedes aegypti = assay: whole plant or invertebrate; conditions: 48 h, larval mortality, 2 days, read-out: mortality in comparison with untreated controls
Method: For evaluating control of Yellow Fever Mosquito, the test unit consisted of 96-well-microtiter plates containing 200µl of tap water per well and 5-15 freshly hatched A. aegypti larvae. The active compounds were formulated using a solution containing 75% (v/v) water and 25% (v/v) DMSO. Different concentrations of formulated compounds or mixtures were sprayed onto the insect diet at 2.5µl, using a custom-built micro atomizer, at two replications.
After application, microtiter plates were incubated at 28 ± 1°C, 80 ± 5 % RH for 2 days. Larval mortality was then visually assessed.

Measured: mortality at 800 ppm

CC(C)C(=O)NCc1cc(NC2=NOC(c3ccc(F)c(Cl)c3)(C(F)(F)F)C2)ccc1Cl (stereo not drawn) [I-25]
≥ 75%: all assays above

O=C(NCc1cc(NC2=NOC(c3ccc(F)c(Cl)c3)(C(F)(F)F)C2)ccc1Cl)C1CSC1 (stereo not drawn) [I-45]
≥ 75%: all assays above

O=C(CC1CC1)NCc1cc(NC2=NOC(c3cc(Cl)cc(Cl)c3)(C(F)(F)F)C2)ccc1F (stereo not drawn) [I-6]
not listed: Plutella xylostella
≥ 75%: all other assays above

CON=CC(=O)NCc1cc(NC2=NOC(c3cc(Cl)cc(Cl)c3)(C(F)(F)F)C2)ccc1F (stereo not drawn) [I-12]
not listed: Aedes aegypti
≥ 75%: all other assays above

CS(=O)(=O)CC(=O)NCc1cc(NC2=NOC(c3cc(Cl)cc(Cl)c3)(C(F)(F)F)C2)ccc1F (stereo not drawn) [I-4]
not listed: Plutella xylostella
≥ 75%: all other assays above

Cc1ccc(NC2=NOC(c3cc(Cl)c(F)c(Cl)c3)(C(F)(F)F)C2)cc1CNC(=O)C1CC1 (stereo not drawn) [I-20]
≥ 75%: all assays above

CCC(=O)NCc1cc(NC2=NOC(c3ccc(F)c(Cl)c3)(C(F)(F)F)C2)ccc1Cl (stereo not drawn) [I-50]
≥ 75%: all assays above

COCCC(=O)NCc1cc(NC2=NOC(c3cc(Cl)cc(Cl)c3)(C(F)(F)F)C2)ccc1F (stereo not drawn) [I-3]
not listed: Plutella xylostella
≥ 75%: all other assays above

CCN(C1=NOC(c2cc(Cl)c(F)c(Cl)c2)(C(F)(F)F)C1)c1ccc(F)c(CNC(=O)C2CC2)c1 (stereo not drawn) [I-15]
≥ 75%: all assays above

N#CC1(C(=O)NCc2cc(NC3=NOC(c4ccc(F)c(Cl)c4)(C(F)(F)F)C3)ccc2Cl)CC1 (stereo not drawn) [I-32]
≥ 75%: all assays above

CC(C)CC(=O)NCc1cc(NC2=NOC(c3ccc(F)c(Cl)c3)(C(F)(F)F)C2)ccc1Cl (stereo not drawn) [I-28]
≥ 75%: all assays above

O=C(NCc1cc(NC2=NOC(c3ccc(F)c(Cl)c3)(C(F)(F)F)C2)ccc1Cl)C1CCC1 (stereo not drawn) [I-23]
≥ 75%: all assays above

O=C(NCc1cc(NC2=NOC(c3ccc(F)c(Cl)c3)(C(F)(F)F)C2)ccc1Cl)C1CC1(F)F (stereo not drawn) [I-48]
≥ 75%: all assays above

O=C(NCc1cc(NC2=NOC(c3cc(Cl)c(F)c(Cl)c3)(C(F)(F)F)C2)ccc1OC(F)(F)F)C1CC1 (stereo not drawn) [I-18]
≥ 75%: all assays above

CCOC(=O)N(C1=NOC(c2cc(Cl)c(F)c(Cl)c2)(C(F)(F)F)C1)c1ccc(F)c(CNC(=O)C2CC2)c1 (stereo not drawn) [I-42]
≥ 75%: all assays above

O=C(NCc1cc(NC2=NOC(c3cc(Cl)cc(Cl)c3)(C(F)(F)Cl)C2)ccc1F)C1CC1 (stereo not drawn) [I-43]
≥ 75%: all assays above

O=C(NCc1cc(NC2=NOC(c3ccc(F)c(Cl)c3)(C(F)(F)F)C2)ccc1Cl)C1CC1 (stereo not drawn) [I-21]
≥ 75%: all assays above

O=C(N[C@H]1CCc2ccc(NC3=NOC(c4ccc(F)c(Cl)c4)(C(F)(F)F)C3)cc21)C1CC1 (stereo partly drawn) [III-1]
≥ 75%: all assays above

CN(Cc1cc(NC2=NOC(c3cc(Cl)c(F)c(Cl)c3)(C(F)(F)F)C2)ccc1F)C(=O)C1CC1 (stereo not drawn) [I-17]
not listed: Myzus persicae
≥ 75%: all other assays above

O=C(NCc1cc(NC2=NOC(c3cc(Cl)c(F)c(Cl)c3)(C(F)(F)F)C2)ccc1F)C1CC1 (stereo not drawn) [I-16]
≥ 75%: all assays above

O=C(NCc1cc(OC2=NOC(c3cc(Cl)c(F)c(Cl)c3)(C(F)(F)F)C2)ccc1F)C1CC1 (stereo not drawn) [I-22]
≥ 75%: all assays above

CCS(=O)(=O)NCc1cc(NC2=NOC(c3cc(Cl)cc(Cl)c3)(C(F)(F)F)C2)ccc1F (stereo not drawn) [I-13]
≥ 75%: all assays above

CCC(=O)NCc1cc(NC2=NOC(c3cc(Cl)cc(Cl)c3)(C(F)(F)F)C2)ccc1F (stereo not drawn) [I-2]
not listed: Aedes aegypti
≥ 75%: all other assays above

O=C(NCc1cc(NC2=NOC(c3cc(Cl)c(F)c(Cl)c3)(C(F)(F)F)C2)ccc1Cl)C1CC1 (stereo not drawn) [I-14]
≥ 75%: all assays above
